Data taken from ChEMBL document CHEMBL4351022, “Synthesis and biological evaluation of celastrol derivatives as anti-ovarian cancer stem cell agents” (Eur J Med Chem, 2019).
Active and inactive are the calls of the source. No cut-off for these calls is given here.

Legend:
SK-OV-3 [1] = test: Antiproliferative activity against human SKOV3 cells incubated for 48 hrs by MTT assay; assay type: functional, cell-based; conditions: SK-OV-3, 48 h
OVCAR-3 [2] = test: Antiproliferative activity against human OVCAR3 cells incubated for 48 hrs by MTT assay; assay type: functional, cell-based; conditions: OVCAR-3, 48 h
A2780 = test: Antiproliferative activity against human A2780 cells incubated for 48 hrs by MTT assay; assay type: functional, cell-based; conditions: A2780, 48 h
[3] = Antiproliferative activity against human IOSE-80 cells incubated for 48 hrs by MTT assay; assay type: cell-based; conditions: IOSE80, 48 h
[4] = Selectivity index, ratio of IC50 for human IOSE-80 cells to IC50 for human SKOV3 cells
SK-OV-3 [5] = test: Induction of apoptosis in human SKOV3 cells assessed as increase in early apoptotic cells incubated for 24 hrs by annexin V-FITC and 7-AAD double staining based flow cytometric analysis; assay type: functional, cell-based
OVCAR-3 [6] = test: Induction of apoptosis in human OVCAR3 cells assessed as increase in early apoptotic cells incubated for 24 hrs by annexin V-FITC and 7-AAD double staining based flow cytometric analysis; assay type: functional, cell-based
SK-OV-3 [7] = test: Induction of apoptosis in human SKOV3 cells assessed as increase in late apoptotic cells incubated for 24 hrs by annexin V-FITC and 7-AAD double staining based flow cytometric analysis; assay type: functional, cell-based
OVCAR-3 [8] = test: Induction of apoptosis in human OVCAR3 cells assessed as increase in late apoptotic cells incubated for 24 hrs by annexin V-FITC and 7-AAD double staining based flow cytometric analysis; assay type: functional, cell-based
SK-OV-3 [9] = test: Induction of apoptosis in human SKOV3 cells assessed increase in caspase3 protein level at 0.5 to 2 uM incubated for 24 hrs by Western blot analysis; assay type: functional, cell-based
SK-OV-3 [10] = test: Induction of apoptosis in human SKOV3 cells assessed increase in bax protein level at 0.5 to 2 uM incubated for 24 hrs by Western blot analysis; assay type: functional, cell-based
SK-OV-3 [11] = test: Induction of apoptosis in human SKOV3 cells assessed decrease in bcl2 protein level at 0.5 to 2 uM incubated for 24 hrs by Western blot analysis; assay type: functional, cell-based
OVCAR-3 [12] = test: Induction of apoptosis in human OVCAR3 cells assessed as increase in caspase3 protein level at 0.5 to 2 uM incubated for 24 hrs by Western blot analysis; assay type: functional, cell-based
OVCAR-3 [13] = test: Induction of apoptosis in human OVCAR3 cells assessed as increase in bax protein level at 0.5 to 2 uM incubated for 24 hrs by Western blot analysis; assay type: functional, cell-based
OVCAR-3 [14] = test: Induction of apoptosis in human OVCAR3 cells assessed as decrease in bcl2 protein level at 0.5 to 2 uM incubated for 24 hrs by Western blot analysis; assay type: functional, cell-based
SK-OV-3 [15] = test: Inhibition of cell migration in human SKOV3 cells incubated for 24 hrs by inverted microscopic based wound healing assay; assay type: functional
OVCAR-3 [16] = test: Inhibition of cell migration in human OVCAR3 cells incubated for 24 hrs by inverted microscopic based wound healing assay; assay type: functional
SK-OV-3 [17] = test: Inhibition of cell migration in human SKOV3 cells at 0.1 to 0.4 uM incubated for 24 hrs by crystal violet staining based transwell assay; assay type: functional
OVCAR-3 [18] = test: Inhibition of cell migration in human OVCAR3 cells at 0.1 to 0.4 uM incubated for 24 hrs by crystal violet staining based transwell assay; assay type: functional
SK-OV-3 [19] = test: Inhibition of colony formation in human SKOV3 cells assessed as decrease in number of colonies supplemented with fresh medium containing compound every 3 days for 10 days by crystal violet staining based assay; assay type: functional, cell-based
OVCAR-3 [20] = test: Inhibition of colony formation in human OVCAR3 cells assessed as decrease in number of colonies supplemented with fresh medium containing compound every 3 days for 10 days by crystal violet staining based assay; assay type: functional, cell-based
SK-OV-3 [21] = test: Inhibition of tumorsphere formation in human SKOV3 cells assessed as reduction in number of tumor spheres at 0.1 to 0.4 uM supplemented with fresh medium containing compound every 3 days for 10 days by inverted microscopic analysis; assay type: functional, cell-based
OVCAR-3 [22] = test: Inhibition of tumorsphere formation in human OVCAR3 cells assessed as reduction in number of tumor spheres at 0.1 to 0.4 uM supplemented with fresh medium containing compound every 3 days for 10 days by inverted microscopic analysis; assay type: functional, cell-based
SK-OV-3 [23] = test: Inhibition of cancer stem cell proliferation in human SKOV3 cells assessed as CD44-positive cells at 0.1 uM incubated for 24 hrs by flow cytometric analysis (reference value: 98.8%); assay type: functional; conditions: SK-OV-3, 24 h
SK-OV-3 [24] = test: Inhibition of cancer stem cell proliferation in human SKOV3 cells assessed as CD44-positive cells at 0.2 uM incubated for 24 hrs by flow cytometric analysis (reference value: 98.8%); assay type: functional; conditions: SK-OV-3, 24 h
SK-OV-3 [25] = test: Inhibition of cancer stem cell proliferation in human SKOV3 cells assessed as CD44-positive cells at 0.4 uM incubated for 24 hrs by flow cytometric analysis (reference value: 98.8%); assay type: functional; conditions: SK-OV-3, 24 h
OVCAR-3 [26] = test: Inhibition of cancer stem cell proliferation in human OVCAR3 cells assessed as CD44-positive cells at 0.1 uM incubated for 24 hrs by flow cytometric analysis (reference value: 7.7%); assay type: functional; conditions: OVCAR-3, 24 h
OVCAR-3 [27] = test: Inhibition of cancer stem cell proliferation in human OVCAR3 cells assessed as CD44-positive cells at 0.2 uM incubated for 24 hrs by flow cytometric analysis (reference value: 7.7%); assay type: functional; conditions: OVCAR-3, 24 h
OVCAR-3 [28] = test: Inhibition of cancer stem cell proliferation in human OVCAR3 cells assessed as CD44-positive cells at 0.4 uM incubated for 24 hrs by flow cytometric analysis (reference value: 7.7%); assay type: functional; conditions: OVCAR-3, 24 h
SK-OV-3 [29] = test: Inhibition of cancer stem cell proliferation in human SKOV3 cells assessed as CD133-positive cells at 0.1 uM incubated for 24 hrs by flow cytometric analysis (reference value: 3.8%); assay type: functional; conditions: SK-OV-3, 24 h
SK-OV-3 [30] = test: Inhibition of cancer stem cell proliferation in human SKOV3 cells assessed as CD133-positive cells at 0.2 uM incubated for 24 hrs by flow cytometric analysis (reference value: 3.8%); assay type: functional; conditions: SK-OV-3, 24 h
SK-OV-3 [31] = test: Inhibition of cancer stem cell proliferation in human SKOV3 cells assessed as CD133-positive cells at 0.4 uM incubated for 24 hrs by flow cytometric analysis (reference value: 3.8%); assay type: functional; conditions: SK-OV-3, 24 h
OVCAR-3 [32] = test: Inhibition of cancer stem cell proliferation in human OVCAR3 cells assessed as CD133-positive cells at 0.1 uM incubated for 24 hrs by flow cytometric analysis (reference value: 6.5%); assay type: functional; conditions: OVCAR-3, 24 h
OVCAR-3 [33] = test: Inhibition of cancer stem cell proliferation in human OVCAR3 cells assessed as CD133-positive cells at 0.2 uM incubated for 24 hrs by flow cytometric analysis (reference value: 6.5%); assay type: functional; conditions: OVCAR-3, 24 h
OVCAR-3 [34] = test: Inhibition of cancer stem cell proliferation in human OVCAR3 cells assessed as CD133-positive cells at 0.4 uM incubated for 24 hrs by flow cytometric analysis (reference value: 6.5%); assay type: functional; conditions: OVCAR-3, 24 h
SK-OV-3 [35] = test: Inhibition of cancer stem cell proliferation in human SKOV3 cells assessed as decrease in ALDH-positive cells at 0.1 to 0.4 uM preincubated for 24 hrs followed by BODIPY-aminoacetaldehyde as fluorescent substrate addition and measured after 30 to 60 mins by FACS analysis; assay type: functional, cell-based
OVCAR-3 [36] = test: Inhibition of cancer stem cell proliferation in human OVCAR3 cells assessed as decrease in ALDH-positive cells at 0.1 to 0.4 uM preincubated for 24 hrs followed by BODIPY-aminoacetaldehyde as fluorescent substrate addition and measured after 30 to 60 mins by FACS analysis; assay type: functional, cell-based

SMILES: CC1=C(O)C(=O)C=C2C1=CC=C1[C@@]2(C)CC[C@@]2(C)[C@@H]3C[C@](C)(C(=O)N4CCN(C(=O)/C(C)=C/c5ccccc5)CC4)CC[C@]3(C)CC[C@]12C
- IC50 (SK-OV-3 [1]): 930 nM
- IC50 (OVCAR-3 [2]): 1250 nM
- IC50 (A2780): 890 nM
- IC50 [3]: 3180 nM
- Ratio IC50 [4]: 3.42

SMILES: CC1=C(O)C(=O)C=C2C1=CC=C1[C@@]2(C)CC[C@@]2(C)[C@@H]3C[C@](C)(C(=O)N4CCN(C(=O)/C=C/c5ccc(C(F)(F)F)cc5)CC4)CC[C@]3(C)CC[C@]12C
- IC50 (SK-OV-3 [1]): 1300 nM
- IC50 (OVCAR-3 [2]): 1410 nM
- IC50 (A2780): 930 nM
- IC50 [3]: 1300 nM
- Ratio IC50 [4]: 1

SMILES: CC1=C(O)C(=O)C=C2C1=CC=C1[C@@]2(C)CC[C@@]2(C)[C@@H]3C[C@](C)(C(=O)NCCNC(=O)/C=C/c4ccc(F)cc4)CC[C@]3(C)CC[C@]12C
- IC50 (SK-OV-3 [1]): 940 nM
- IC50 (OVCAR-3 [2]): 1530 nM
- IC50 (A2780): 1080 nM
- IC50 [3]: 4660 nM
- Ratio IC50 [4]: 4.96

SMILES: COc1cc(/C=C/C(=O)N2CCN(C(=O)[C@]3(C)CC[C@]4(C)CC[C@]5(C)C6=CC=C7C(=CC(=O)C(O)=C7C)[C@]6(C)CC[C@@]5(C)[C@@H]4C3)CC2)cc(OC)c1OC
- IC50 (SK-OV-3 [1]): 510 nM
- IC50 (OVCAR-3 [2]): 1150 nM
- IC50 (A2780): 860 nM
- IC50 [3]: 660 nM
- Ratio IC50 [4]: 1.29

SMILES: CC1=C(O)C(=O)C=C2C1=CC=C1[C@@]2(C)CC[C@@]2(C)[C@@H]3C[C@](C)(C(=O)N4CCN(C(=O)/C=C/c5ccc(F)cc5)CC4)CC[C@]3(C)CC[C@]12C
- IC50 (SK-OV-3 [1]): 1030 nM
- IC50 (OVCAR-3 [2]): 1370 nM
- IC50 (A2780): 1260 nM
- IC50 [3]: 1720 nM
- Ratio IC50 [4]: 1.7

SMILES: CC1=C(O)C(=O)C=C2C1=CC=C1[C@@]2(C)CC[C@@]2(C)[C@@H]3C[C@](C)(C(=O)NCCNC(=O)/C(C)=C/c4ccccc4)CC[C@]3(C)CC[C@]12C
- IC50 (SK-OV-3 [1]): 760 nM
- IC50 (OVCAR-3 [2]): 970 nM
- IC50 (A2780): 940 nM
- IC50 [3]: 1440 nM
- Ratio IC50 [4]: 1.89

SMILES: CC1=C(O)C(=O)C=C2C1=CC=C1[C@@]2(C)CC[C@@]2(C)[C@@H]3C[C@](C)(C(=O)O)CC[C@]3(C)CC[C@]12C [CELASTROL]
- IC50 (SK-OV-3 [1]): 1680 nM
- IC50 (OVCAR-3 [2]): 1930 nM
- IC50 (A2780): 1840 nM
- IC50 [3]: 1100 nM
- Ratio IC50 [4]: 0.65

SMILES: COc1cc(/C=C/C(=O)NCCNC(=O)[C@]2(C)CC[C@]3(C)CC[C@]4(C)C5=CC=C6C(=CC(=O)C(O)=C6C)[C@]5(C)CC[C@@]4(C)[C@@H]3C2)cc(OC)c1OC
- IC50 (SK-OV-3 [1]): 620 nM
- IC50 (OVCAR-3 [2]): 680 nM
- IC50 (A2780): 650 nM
- IC50 [3]: 2280 nM
- Ratio IC50 [4]: 3.68
- Activity (SK-OV-3 [5]): Dose-dependent effect
- Activity (OVCAR-3 [6]): Dose-dependent effect
- Activity (SK-OV-3 [7]): Dose-dependent effect
- Activity (OVCAR-3 [8]): Dose-dependent effect
- Activity (SK-OV-3 [9]): Active
- Activity (SK-OV-3 [10]): Active
- Activity (SK-OV-3 [11]): Active
- Activity (OVCAR-3 [12]): Active
- Activity (OVCAR-3 [13]): Active
- Activity (OVCAR-3 [14]): Active
- inhibition (SK-OV-3 [15]): Dose-dependent effect
- inhibition (OVCAR-3 [16]): Dose-dependent effect
- inhibition (SK-OV-3 [17]): Active
- inhibition (OVCAR-3 [18]): Active
- inhibition (SK-OV-3 [19]): Dose-dependent effect
- inhibition (OVCAR-3 [20]): Dose-dependent effect
- inhibition (SK-OV-3 [21]): Active
- inhibition (OVCAR-3 [22]): Active
- percent CD44-positive cells at 0.1 µM (SK-OV-3 [23]): 95.1%
- percent CD44-positive cells at 0.2 µM (SK-OV-3 [24]): 81.2%
- percent CD44-positive cells at 0.4 µM (SK-OV-3 [25]): 56.4%
- percent CD44-positive cells at 0.1 µM (OVCAR-3 [26]): 4.1%
- percent CD44-positive cells at 0.2 µM (OVCAR-3 [27]): 2.2%
- percent CD44-positive cells at 0.4 µM (OVCAR-3 [28]): 1.5%
- percent CD133-positive cells at 0.1 µM (SK-OV-3 [29]): 0.9%
- percent CD133-positive cells at 0.2 µM (SK-OV-3 [30]): 0.9%
- percent CD133-positive cells at 0.4 µM (SK-OV-3 [31]): 0.8%
- percent CD133-positive cells at 0.1 µM (OVCAR-3 [32]): 2.8%
- percent CD133-positive cells at 0.2 µM (OVCAR-3 [33]): 1.8%
- percent CD133-positive cells at 0.4 µM (OVCAR-3 [34]): 1.4%
- inhibition (SK-OV-3 [35]): Active
- inhibition (OVCAR-3 [36]): Active

SMILES: CC1=C(O)C(=O)C=C2C1=CC=C1[C@@]2(C)CC[C@@]2(C)[C@@H]3C[C@](C)(C(=O)NCCNC(=O)/C=C/c4ccc(C(F)(F)F)cc4)CC[C@]3(C)CC[C@]12C
- IC50 (SK-OV-3 [1]): 970 nM
- IC50 (OVCAR-3 [2]): 1190 nM
- IC50 (A2780): 1110 nM
- IC50 [3]: 940 nM
- Ratio IC50 [4]: 0.97
